System: HCV replicon
Experiment: Replicon based assay of HCV replication inhibition (NPT ELISA)
Format: cell-based, Hepatitis C virus
Settings: Hepatitis C virus, replicon based assay of HCV replication inhibition; Table II; read-out: Activity
In short: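 NPT (neomycin phosphotransferase) content, proportional to replicon replication, quantified by capture ELISA on day four. Before that, replicon-bearing Huh-7 cells in G418-free screening medium were exposed three days at 37° C to compound, typically six doses from 10 to 0.03 micromolar, with equal DMSO across wells.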

| Compound | EC50 |
| --- | --- |
| CCCCCCCOc1ccc(Nc2nc(-c3ccc4[nH]c(=O)oc4c3)cs2)cc1 [compound 395, 6-(2-(4-(heptyloxy)phenylamino)thia-zol-4-yl)benzo[d]exazol-2(3H)-one] | < 1000 nM |
| CCCCCCCOc1ccc(Nc2nc(-c3cccc(C(=O)O)c3)cs2)cc1 [compound 396, 3-(2-(4-(heptyloxy)phenylamino)thia-zol-4-yl)benzoic acid] | < 1000 nM |
| CCCCCCCOc1ccc(Nc2nc(-c3ccccn3)cs2)cc1 [compound 397, N-(4-(heptyloxy)phenyl)-4-(pyridin-2-yl)thiazol-2-amine] | < 1000 nM |
| CCCCCCCOc1ccc(Nc2nc(-c3c[nH]c4ccccc34)cs2)cc1 [compound 398, N-(4-(heptyloxy)phenyl)-4-(1H-indol-3-yl)thiazol-2-amine] | < 1000 nM |
| CCCCCCCOc1ccc(Nc2nc(-c3ccc(-c4ccccn4)s3)cs2)cc1 [compound 399, N-(4-(heptyloxy)phenyl)-4-(5-(pyridin-2-yl)thiophen-2-yl)thiazol-2-amine] | < 1000 nM |
| CCCCCCCOc1ccc(Nc2nc(-c3nc4ccccc4s3)cs2)cc1 [compound 400, 4-(benzo[d]thiazol-2-yl)-N-(4-(heptyloxy)phenyl)thiazol-2-amine] | 1000 to 10000 nM |
| CCCCCCCOc1ccc(Nc2nc(-c3cc4ccccc4o3)cs2)cc1 [compound 401, 4-(benzofuran-2-yl)-N-(4-(heptyloxy)phenyl)thiazol-2-amine] | 1000 to 10000 nM |
| CCCCCCCOc1ccc(Nc2nc(-c3sc(-c4cnccn4)nc3C)cs2)cc1 [compound 402] | < 1000 nM |
| CCCCCCCOc1ccc(Nc2nc(CC)cs2)cc1 [compound 403, 4-ethyl-N-(4-(heptyloxy)phenyl)thiazol-2-amine] | < 1000 nM |
| CCCCCOc1ccc(Nc2nc(-c3ccc(O)c(O)c3)cs2)cc1C(F)(F)F [compound 404, 4-(2-(3-(trifluoromethyl)-4-(pentyloxy)phenylamino)thia-zol-4-yl)benzene-1,2-diol] | < 1000 nM |
| CCCCCOc1ccc(Nc2nc(-c3ccc(Cl)s3)cs2)cc1C(F)(F)F [compound 405] | < 1000 nM |
| CCCCCOc1ccc(Nc2nc(-c3ccc(Br)cc3)cs2)cc1C(F)(F)F [compound 406, 4-(4-bromophenyl)-N-(3-(trifluoromethyl)-4-(pentyloxy)phenyl)thiazol-2-amine] | < 1000 nM |
| CCCCCOc1ccc(Nc2nc(-c3ccc4[nH]c(=O)oc4c3)cs2)cc1C(F)(F)F [compound 407, 6-(2-(3-(trifluoromethyl)-4-(pentyloxy)phenylamino)thia-zol-4-yl)benzo[d]oxazol-2(3H)-one] | < 1000 nM |
| CCCCCOc1ccc(Nc2nc(-c3cccc(C(=O)O)c3)cs2)cc1C(F)(F)F [compound 408, 3-(2-(3-(trifluoromethyl)-4-(pentyloxy)phenylamino)thia-zol-4-yl)benzoic acid] | < 1000 nM |
| CCCCCOc1ccc(Nc2nc(-c3ccccn3)cs2)cc1C(F)(F)F [compound 409, N-(3-(trifluoromethyl)-4-(pentyloxy)phenyl)-4-(pyridin-2-yl)thiazol-2-amine] | < 1000 nM |
| CCCCCOc1ccc(Nc2nc(-c3c[nH]c4ccccc34)cs2)cc1C(F)(F)F [compound 410, N-(3-(trifluoromethyl)-4-(pentyloxy)phenyl)-4-(1H-indol-3-yl)thiazol-2-amine] | < 1000 nM |
| CCCCCOc1ccc(Nc2nc(-c3ccc(-c4ccccn4)s3)cs2)cc1C(F)(F)F [compound 411, N-(3-(trifluoromethyl)-4-(pentyloxy)phenyl)-4-(5-(pyridin-2-yl)thiophen-2-yl)thiazol-2-amine] | < 1000 nM |
| CCCCCOc1ccc(Nc2nc(-c3nc4ccccc4s3)cs2)cc1C(F)(F)F [compound 412, 4-(benzo[d]thiazol-2-yl)-N-(3-(trifluoromethyl)-4-(pentyloxy)phenyl)thiazol-2-amine] | < 1000 nM |
| CCCCCOc1ccc(Nc2nc(-c3cc4ccccc4o3)cs2)cc1C(F)(F)F [compound 413, 4-(benzofuran-2-yl)-N-(3-(trifluoromethyl)-4-(pentyloxy)phenyl)thiazol-2-amine] | < 1000 nM |
| CCCCCOc1ccc(Nc2nc(-c3sc(-c4cnccn4)nc3C)cs2)cc1C(F)(F)F [compound 414, N-(3-(trifluoromethyl)-4-(pentyloxy)phenyl)-4-(4-methyl-2-(pyrazin-2-yl)thiazol-5-yl)thiazol-2-amine] | < 1000 nM |
| CCCCCOc1ccc(Nc2nc(CC)cs2)cc1C(F)(F)F [compound 415, 4-ethyl-N-(3-(trifluoromethyl)-4-(pentyloxy)phenyl)thiazol-2-amine] | < 1000 nM |
| CCCCCCCCOc1ccc(Nc2nc(-c3ccncc3)cs2)cc1 [compound 416, N-(4-(octyloxy)phenyl)-4-(pyridin-4-yl)thiazol-2-amine] | < 1000 nM |
| CCCCCOc1ccc(Nc2nc(-c3ccncc3)cs2)cc1F [compound 417, N-(3-fluoro-4-(pentyloxy)phenyl)-4-(pyridin-4-yl)thiazol-2-amine] | 1000 to 10000 nM |
| CCCCCOc1ccc(Nc2nc(-c3ccccn3)cs2)cc1F [compound 418, N-(3-fluoro-4-(pentyloxy)phenyl)-4-(pyridin-2-yl)thiazol-2-amine] | < 1000 nM |

| Compound | EC50 |
| --- | --- |
| CCCCCOc1ccc(Nc2nc(-c3cc4ccccc4o3)cs2)cc1F [compound 419, 4-(benzofuran-2-yl)-N-(3-fluoro-4-(pentyloxy)phenyl)thiazol-2-amine] | 1000 to 10000 nM |
| CCCCCCCOc1ccc(Nc2nc(-c3ccc(F)cc3)cs2)cc1 [compound 420, 4-(4-fluorophenyl)-N-(4-(heptyloxy)phenyl)thiazol-2-amine] | < 1000 nM |
| CCCCCCCOc1ccc(Nc2nc(-c3ccc(Cl)c(Cl)c3)cs2)cc1 [compound 421, 4-(3,4-dichlorophenyl)-N-(4-(heptyloxy)phenyl)thiazol-2-amine] | < 1000 nM |
| CCCCCCCOc1ccc(Nc2nc(-c3ccc(Cl)cc3)cs2)cc1 [compound 422, 4-(4-chlorophenyl)-N-(4-(heptyloxy)phenyl)thiazol-2-amine] | < 1000 nM |
| CCCCCCCOc1ccc(Nc2nc(-c3ccc(F)cc3F)cs2)cc1 [compound 423, 4-(2,4-difluorophenyl)-N-(4-(heptyloxy)phenyl)thiazol-2-amine] | < 1000 nM |
| CCCCCCCOc1ccc(Nc2nc(-c3ccc(OC)cc3)cs2)cc1 [compound 424, N-(4-(heptyloxy)phenyl)-4-(4-methoxyphenyl)thiazol-2-amine] | < 1000 nM |
| CCCCCCCOc1ccc(Nc2nc(-c3ccc(OCC(=O)O)cc3)c(C)s2)cc1 [compound 425, 2-(4-(2-(4-(heptyloxy)phenylamino)-5-methylthiazol-4-yl)phenoxy)acetic acid] | < 1000 nM |
| CCCCCOc1ccc(Nc2nc(-c3ccc(C(=O)O)cc3)cs2)cc1F [compound 426, 4-(2-(3-fluoro-4-(pentyloxy)phenylamino)thia-zol-4-yl)benzoic acid] | 1000 to 10000 nM |
| CCCCCOc1ccc(Nc2nc(CC)cs2)cc1F [compound 427, 4-ethyl-N-(3-fluoro-4-(pentyloxy)phenyl)thiazol-2-amine] | 1000 to 10000 nM |
| COc1ccc(Cl)cc1Nc1nc(-c2cccnc2)cs1 [compound 428, N-(5-chloro-2-methoxyphenyl)-4-(pyridin-3-yl)thiazol-2-amine] | 1000 to 10000 nM |
| CC(=O)Nc1ccc(Nc2nc(-c3cccs3)cs2)cc1 [compound 429, N-(4-(4-(thiophen-2-yl)thiazol-2-ylamino)phenyl)acetamide] | > 10000 nM |
| CCCCCOc1c(F)cc(Nc2nc(-c3cccnc3)cs2)cc1F [compound 430, N-(3,5-difluoro-4-(pentyloxy)phenyl)-4-(pyridin-3-yl)thiazol-2-amine] | < 1000 nM |
| CCCCCOc1ccc(Nc2nc(-c3cc(OC)ccc3OC)cs2)cc1C(F)(F)F [compound 431, N-(3-(trifluoromethyl)-4-(pentyloxy)phenyl)-4-(2,5-dimethoxyphenyl)thiazol-2-amine] | 1000 to 10000 nM |
| CCCCCCCOc1ccc(Nc2nc(-c3cc(OC)ccc3OC)cs2)cc1 [compound 432, N-(4-(heptyloxy)phenyl)-4-(2,5-dimethoxyphenyl)thiazol-2-amine] | < 1000 nM |
| CCCCCOc1ccc(Nc2nc(-c3cc(OC)ccc3OC)cs2)cc1F [compound 433, N-(3-fluoro-4-(pentyloxy)phenyl)-4-(2,5-dimethoxyphenyl)thiazol-2-amine] | < 1000 nM |
| CCCCCOc1ccc(Nc2nc(-c3cccc(O)c3)cs2)cc1C(F)(F)F [compound 434, 3-(2-(3-(trifluoromethyl)-4-(pentyloxy)phenylmino)thia-zol-4-yl)phenol] | 1000 to 10000 nM |
| CCCCCCCOc1ccc(Nc2nc(-c3cccc(O)c3)cs2)cc1 [compound 435, 3-(2-(4-(heptyloxy)phenylamino)thia-zol-4-yl)phenol] | < 1000 nM |
| CCCCCCCCOc1ccc(Nc2nc(-c3cccc(O)c3)cs2)cc1 [compound 436, 3-(2-(4-(octyloxy)phenylamino)thia-zol-4-yl)phenol] | < 1000 nM |
| CCCCCOc1ccc(Nc2nc(-c3ccc(NC(C)=O)cc3)cs2)cc1C(F)(F)F [compound 437, N-(4-(2-(3-(trifluoromethyl)-4-(pentyloxy)phenylamino)thia-zol-4-yl)phenyl)acetamide] | 1000 to 10000 nM |
| CCCCCCCOc1ccc(Nc2nc(-c3ccc(NC(C)=O)cc3)cs2)cc1 [compound 438, N-(4-(2-(4-(heptyloxy)phenylamino)thia-zol-4-yl)phenyl)acetamide] | < 1000 nM |
| CCCCCOc1ccc(Nc2nc(-c3ccc(NC(C)=O)cc3)cs2)cc1F [compound 439, N-(4-(2-(3-fluoro-4-(pentyloxy)phenylamino)thia-zol-4-yl)phenyl)acetamide] | < 1000 nM |
| COc1ccc(OC)c(Nc2ncc(-c3cccs3)s2)c1 [compound 440, N-(2,5-dimethoxyphenyl)-5-(thiophen-2-yl)thiazol-2-amine] | 1000 to 10000 nM |
| CCCCCOc1ccc(Nc2nc(-c3cccnc3C)cs2)cc1C(F)(F)F [compound 441, N-(3-(trifluoromethyl)-4-(pentyloxy)phenyl)-4-(2-methylpyridin-3-yl)thiazol-2-amine] | < 1000 nM |

From patent US8088806B2 (Achillion Pharmaceuticals, Inc., priority 2005, dated 2012)
